Series [1] relates to Lepidium sativum. As to the kind of experiment: Herbicidal activity against Lepidium sativum assessed as inhibition of radicle growth of seed at 3 to 4 ppm after 69 to 75 hrs in dark. The series is classed as functional, organism-based.
The nature of series [2]: Toxicity in ip dosed mouse. The series is classed as organism-based. The conditions noted are these: in vivo.
A further series concerns Rattus norvegicus. As to the kind of experiment: Acute toxicity in rat at 2500 to 5000 mg/kg, po. The series is classed as organism-based. The arrangement: dose 2500-5000 mg/kg, route oral. To be noted: in vivo.
In series [3] the test system is Lepidium sativum. The series can be described thus: Herbicidal activity against Lepidium sativum assessed as inhibition of radicle growth of seeds at 1 to 2 ppm after 69 to 75 hrs in dark. The arrangement: scale not given: the % may be the effect or the level left. In kind it is functional.
Series [4] relates to Lepidium sativum. As to the kind of experiment: Herbicidal activity against Lepidium sativum assessed as occurrence of browning and tissue necrosis. The series is classed as functional, organism-based.

Active and inactive are the calls of the source. No cut-off for these calls is given here.

As a reminder, the LD50 is the dose at which mortality reaches 50%. For the compound `COC1=C2C[C@@H](C)C[C@H](OC)[C@H](O)[C@@H](C)/C=C(\C)[C@H](OC(N)=O)[C@@H](OC)/C=C\C=C(/C)C(=O)NC(=CC1=O)C2=O` [GELDANAMYCIN], in the series with Lepidium sativum [1], the outcome was Active. The compound also came in with an LD50 in series [2] of 1 mg/kg. Moreover, the Activity result in the series with Rattus norvegicus was “Toxic”; in the series with Lepidium sativum [3], 50%.
Regarding `CO[C@@H]1C[C@@H](C[C@H]2CC[C@H](C)[C@H]([C@@H](C)C(=O)O)O2)O[C@]2(O[C@](C)([C@H]3CC[C@@](C)([C@@H]4O[C@@H]([C@H]5O[C@@](O)(CO)[C@H](C)C[C@@H]5C)C[C@@H]4C)O3)C[C@H]2C)[C@@H]1C` [NIGERICIN], the outcome in the series with Lepidium sativum [4] was inactive. Further, the result in the series with Lepidium sativum [1] was Active. This compound also showed an LD50 in series [2] of 10 mg/kg. Besides, in the series on Lepidium sativum [3], the Activity was 50%.
